Activity calls are given as the source filed them. The rule behind the calls is not given here. Square brackets hold non-standard residues; d marks the D form. Peptide text beside a SMILES is read from it. * marks the point of attachment. X2 = CC(=O)N[C@H]1[C@H](O[C@H]2[C@@H](O)[C@H](O)[C@@H](CO)O[C@@H]2*)O[C@H](CO)[C@@H](O[C@@H]2O[C@H](CO)[C@H](O)[C@H](O)[C@H]2O)[C@@H]1O; GlcNAc(β1-2)αMan = CC(=O)N[C@H]1[C@H](O[C@H]2[C@@H](O)[C@H](O)[C@@H](CO)O[C@@H]2*)O[C@H](CO)[C@@H](O)[C@@H]1O; Orn(CH(NH2)2) = NC(N)NCCC[C@H](N)C(=O)O; Hexanoyl(5-oxo) = CC(=O)CCCC(=O)*
Key:
Homo sapiens [1] = species: Homo sapiens; test: Binding affinity to biotin-labeled human recombinant laminin-2 at 10 ug/ml in 5.6 MES buffer by fluorescence microarray method
Homo sapiens [2] = species: Homo sapiens; test: Binding affinity to biotin-labeled human recombinant laminin-2 at 10 ug/ml in pH 7.4 Tris buffer by fluorescence microarray method
[3] = test system: Sambucus racemosa subsp. sieboldiana; test: Binding affinity to biotin-labeled Sambucus sieboldiana agglutinin in pH 7.4 Tris buffer by fluorescence microarray method
[4] = target: Laminin subunit alpha-1 (Homo sapiens) (UniProt P25391); test: Binding affinity to biotin-labeled human recombinant laminin-1 at 10 ug/ml in pH 7.4 Tris buffer by fluorescence microarray method
Erythrina crista-galli = test: Binding affinity to biotin-labeled Erythrina crista-galli agglutinin in pH 7.4 Tris buffer by fluorescence microarray method
Triticum aestivum = test: Binding affinity to biotin-labeled Wheat germ agglutinin in pH 7.4 Tris buffer by fluorescence microarray method
[5] = Binding affinity to biotin-labeled Agaricus bisporus agglutinin in pH 7.4 Tris buffer by fluorescence microarray method
[6] = target: Lactotransferrin (Homo sapiens) (UniProt P02788); test: Binding affinity to biotin-labeled lactoferrin (unknown origin) at 10 ug/ml in pH 5.6 MES buffer by fluorescence microarray method
Datura stramonium = test: Binding affinity to biotin-labeled Datura stramonium agglutinin in pH 7.4 Tris buffer by fluorescence microarray method
[7] = target: Laminin subunit alpha-1 (Homo sapiens) (UniProt P25391); test: Binding affinity to biotin-labeled human recombinant laminin-1 at 10 ug/ml in pH 5.6 MES buffer by fluorescence microarray method
Canavalia ensiformis = test: Binding affinity to biotin-labeled Canavalia ensiformis agglutinin in pH 7.4 Tris buffer by fluorescence microarray method
Arachis hypogaea = test: Binding affinity to biotin-labeled Arachis hypogaea agglutinin in pH 7.4 Tris buffer by fluorescence microarray method
[8] = target: Lactotransferrin (Homo sapiens) (UniProt P02788); test: Binding affinity to biotin-labeled lactoferrin (unknown origin) at 10 ug/ml in pH 7.4 Tris buffer by fluorescence microarray method
Maackia amurensis = test: Binding affinity to biotin-labeled Maackia amurensis agglutinin in pH 7.4 Tris buffer by fluorescence microarray method

Chain of Lactotransferrin (Homo sapiens) (P02788 whole entry): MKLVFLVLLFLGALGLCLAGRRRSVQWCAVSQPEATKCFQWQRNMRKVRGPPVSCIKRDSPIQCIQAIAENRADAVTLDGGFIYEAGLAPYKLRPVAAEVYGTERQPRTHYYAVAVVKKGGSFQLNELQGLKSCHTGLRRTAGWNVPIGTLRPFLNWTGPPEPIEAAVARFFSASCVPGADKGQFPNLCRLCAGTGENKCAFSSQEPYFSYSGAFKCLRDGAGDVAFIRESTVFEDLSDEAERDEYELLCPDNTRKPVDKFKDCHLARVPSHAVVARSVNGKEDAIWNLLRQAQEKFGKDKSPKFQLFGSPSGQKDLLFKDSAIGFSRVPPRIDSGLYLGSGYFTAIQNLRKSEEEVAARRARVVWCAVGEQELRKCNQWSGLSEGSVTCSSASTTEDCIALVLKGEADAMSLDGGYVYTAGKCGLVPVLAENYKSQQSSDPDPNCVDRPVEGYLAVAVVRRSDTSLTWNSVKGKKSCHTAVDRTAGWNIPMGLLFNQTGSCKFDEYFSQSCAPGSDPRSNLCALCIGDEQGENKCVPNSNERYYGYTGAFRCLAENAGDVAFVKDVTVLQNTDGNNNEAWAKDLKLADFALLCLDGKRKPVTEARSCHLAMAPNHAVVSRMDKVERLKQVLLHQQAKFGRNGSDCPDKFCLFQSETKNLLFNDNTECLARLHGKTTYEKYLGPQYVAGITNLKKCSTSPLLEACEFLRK
Chain of Laminin subunit alpha-1 (Homo sapiens) (P25391 whole entry): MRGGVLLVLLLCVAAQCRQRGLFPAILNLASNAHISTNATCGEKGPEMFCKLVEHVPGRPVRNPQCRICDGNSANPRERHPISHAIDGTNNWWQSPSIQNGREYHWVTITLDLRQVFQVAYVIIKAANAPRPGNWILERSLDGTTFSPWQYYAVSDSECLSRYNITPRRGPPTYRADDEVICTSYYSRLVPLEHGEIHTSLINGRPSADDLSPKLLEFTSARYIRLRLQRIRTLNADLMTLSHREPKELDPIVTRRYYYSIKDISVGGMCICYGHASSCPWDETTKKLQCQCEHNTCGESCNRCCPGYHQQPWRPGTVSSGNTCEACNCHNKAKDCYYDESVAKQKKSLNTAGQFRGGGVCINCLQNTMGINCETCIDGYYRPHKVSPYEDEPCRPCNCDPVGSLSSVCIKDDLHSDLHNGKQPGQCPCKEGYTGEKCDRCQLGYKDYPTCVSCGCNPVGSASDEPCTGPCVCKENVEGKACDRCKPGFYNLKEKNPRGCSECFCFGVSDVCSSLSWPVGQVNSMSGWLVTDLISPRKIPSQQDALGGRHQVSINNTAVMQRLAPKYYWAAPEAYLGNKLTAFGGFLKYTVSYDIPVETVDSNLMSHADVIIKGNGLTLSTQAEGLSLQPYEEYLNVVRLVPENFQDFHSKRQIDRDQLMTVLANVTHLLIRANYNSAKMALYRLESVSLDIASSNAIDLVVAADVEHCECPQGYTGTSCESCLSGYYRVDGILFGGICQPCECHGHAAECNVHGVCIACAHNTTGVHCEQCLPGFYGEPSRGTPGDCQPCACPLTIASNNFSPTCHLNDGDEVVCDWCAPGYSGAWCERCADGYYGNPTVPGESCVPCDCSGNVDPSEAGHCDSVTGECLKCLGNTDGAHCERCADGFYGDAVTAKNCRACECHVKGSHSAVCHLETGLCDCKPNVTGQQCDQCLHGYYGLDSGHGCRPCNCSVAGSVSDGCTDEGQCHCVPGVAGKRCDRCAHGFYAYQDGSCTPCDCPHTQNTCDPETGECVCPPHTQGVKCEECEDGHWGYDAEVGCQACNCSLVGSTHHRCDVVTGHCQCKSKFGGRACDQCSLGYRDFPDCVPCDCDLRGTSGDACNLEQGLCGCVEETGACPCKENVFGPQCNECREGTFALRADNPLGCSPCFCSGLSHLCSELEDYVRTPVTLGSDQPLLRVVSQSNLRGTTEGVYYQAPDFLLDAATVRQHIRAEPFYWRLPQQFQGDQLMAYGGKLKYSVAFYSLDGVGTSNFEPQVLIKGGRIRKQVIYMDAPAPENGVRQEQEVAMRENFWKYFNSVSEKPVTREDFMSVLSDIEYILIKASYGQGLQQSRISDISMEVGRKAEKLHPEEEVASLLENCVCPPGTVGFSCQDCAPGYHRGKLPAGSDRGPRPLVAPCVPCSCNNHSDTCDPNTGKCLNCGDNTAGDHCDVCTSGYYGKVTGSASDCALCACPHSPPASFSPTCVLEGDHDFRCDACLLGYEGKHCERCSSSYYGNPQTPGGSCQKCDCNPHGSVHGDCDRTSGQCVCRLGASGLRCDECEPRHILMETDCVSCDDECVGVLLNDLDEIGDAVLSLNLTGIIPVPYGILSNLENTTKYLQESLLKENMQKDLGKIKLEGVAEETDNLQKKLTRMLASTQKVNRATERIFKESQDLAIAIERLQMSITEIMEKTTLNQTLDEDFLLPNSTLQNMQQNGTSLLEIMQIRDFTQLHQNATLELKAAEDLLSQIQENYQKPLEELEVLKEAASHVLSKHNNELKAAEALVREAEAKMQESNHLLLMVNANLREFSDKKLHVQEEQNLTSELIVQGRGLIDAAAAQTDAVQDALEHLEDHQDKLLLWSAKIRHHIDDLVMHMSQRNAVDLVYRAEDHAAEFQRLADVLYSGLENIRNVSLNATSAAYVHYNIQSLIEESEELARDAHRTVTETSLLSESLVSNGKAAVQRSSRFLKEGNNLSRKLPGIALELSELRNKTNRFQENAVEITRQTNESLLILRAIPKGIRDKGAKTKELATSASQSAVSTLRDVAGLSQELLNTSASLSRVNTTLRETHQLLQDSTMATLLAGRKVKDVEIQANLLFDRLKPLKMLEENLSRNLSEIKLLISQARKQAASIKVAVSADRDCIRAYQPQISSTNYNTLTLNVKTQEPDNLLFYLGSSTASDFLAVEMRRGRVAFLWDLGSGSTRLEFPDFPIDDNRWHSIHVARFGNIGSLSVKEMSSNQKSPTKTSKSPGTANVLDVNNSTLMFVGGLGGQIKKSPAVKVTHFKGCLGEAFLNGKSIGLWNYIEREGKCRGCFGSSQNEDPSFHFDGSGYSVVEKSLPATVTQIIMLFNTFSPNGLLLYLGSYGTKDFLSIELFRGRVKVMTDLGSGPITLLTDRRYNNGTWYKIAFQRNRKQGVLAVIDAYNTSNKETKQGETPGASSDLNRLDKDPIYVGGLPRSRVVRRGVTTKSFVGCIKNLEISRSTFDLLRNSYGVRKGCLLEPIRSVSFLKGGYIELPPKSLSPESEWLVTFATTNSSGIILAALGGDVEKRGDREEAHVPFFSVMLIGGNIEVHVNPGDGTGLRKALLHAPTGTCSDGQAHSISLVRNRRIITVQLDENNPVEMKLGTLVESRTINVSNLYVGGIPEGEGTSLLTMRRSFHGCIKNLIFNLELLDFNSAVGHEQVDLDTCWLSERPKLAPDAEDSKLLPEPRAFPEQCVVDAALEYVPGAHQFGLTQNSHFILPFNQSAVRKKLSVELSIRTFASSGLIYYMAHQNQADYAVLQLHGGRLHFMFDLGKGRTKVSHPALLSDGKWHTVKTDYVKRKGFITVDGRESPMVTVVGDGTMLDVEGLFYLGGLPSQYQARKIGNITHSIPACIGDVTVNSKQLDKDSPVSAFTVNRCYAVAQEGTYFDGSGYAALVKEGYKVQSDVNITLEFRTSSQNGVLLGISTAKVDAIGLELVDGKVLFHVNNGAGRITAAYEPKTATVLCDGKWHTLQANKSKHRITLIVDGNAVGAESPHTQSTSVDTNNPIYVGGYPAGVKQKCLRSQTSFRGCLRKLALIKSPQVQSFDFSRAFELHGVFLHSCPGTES

| Compound | Activity (Homo sapiens [1]) | Activity (Homo sapiens [2]) | Activity [3] | Activity [4] | Activity (Erythrina crista-galli) | Activity (Triticum aestivum) | Activity [5] | Activity [6] | Activity (Datura stramonium) | Activity [7] | Activity (Canavalia ensiformis) | Activity (Arachis hypogaea) | Activity [8] | Activity (Maackia amurensis) |
| --- | --- | --- | --- | --- | --- | --- | --- | --- | --- | --- | --- | --- | --- | --- |
| CC[C@H](C)[C@H](NC(=O)[C@H](C)NC(=O)CNC(=O)[C@H](CCCNC(=N)N)NC(=O)[C@@H](NC(=O)CCCC(C)=O)[C@@H](C)O)C(=O)N[C@H](C(=O)N[C@@H](CCC(N)=O)C(=O)N[C@H](C(=O)N1CCC[C@H]1C(=O)N[C@H](C(=O)N[C@@H](CC(C)C)C(=O)NCC(=O)N1CCC[C@H]1C(=O)N[C@H](C(=O)N[C@@H](CCC(N)=O)C(=O)N1CCC[C@H]1C(=O)N[C@H](C(=O)N[C@@H](CCCNC(=N)N)C(=O)N[C@H](C(N)=O)C(C)C)[C@@H](C)O[C@H]1O[C@H](CO)[C@@H](O)[C@H](O)[C@@H]1O[C@@H]1O[C@H](CO)[C@@H](O[C@@H]2O[C@H](CO)[C@H](O)[C@H](O)[C@H]2O)[C@H](O)[C@H]1NC(C)=O)[C@@H](C)CC)[C@@H](C)O)[C@@H](C)O[C@H]1O[C@H](CO)[C@@H](O)[C@H](O)[C@@H]1O[C@@H]1O[C@H](CO)[C@@H](O[C@@H]2O[C@H](CO)[C@H](O)[C@H](O)[C@H]2O)[C@H](O)[C@H]1NC(C)=O)[C@@H](C)CC ({Hexanoyl(5-oxo)}-TRGAIIQT(X2)PTLGPIQPT(X2)RV-NH2) | Active | inactive | Active | Active | Active | Active | Active | Active | inactive | Active | Active | Active | inactive | inactive |
| CC[C@H](C)[C@H](NC(=O)[C@H](C)NC(=O)CNC(=O)[C@H](CCCNC(=N)N)NC(=O)[C@@H](NC(=O)CCCC(C)=O)[C@@H](C)O)C(=O)N[C@H](C(=O)N[C@@H](CCC(N)=O)C(=O)N[C@H](C(=O)N1CCC[C@H]1C(=O)N[C@H](C(=O)N[C@@H](CC(C)C)C(=O)NCC(=O)N1CCC[C@H]1C(=O)N[C@H](C(=O)N[C@@H](CCC(N)=O)C(=O)N1CCC[C@H]1C(=O)N[C@H](C(=O)N[C@@H](CCCNC(=N)N)C(=O)N[C@H](C(N)=O)C(C)C)[C@@H](C)O)[C@@H](C)CC)[C@@H](C)O[C@H]1O[C@H](CO)[C@@H](O)[C@H](O)[C@@H]1O[C@@H]1O[C@H](CO)[C@@H](O[C@@H]2O[C@H](CO)[C@H](O)[C@H](O)[C@H]2O)[C@H](O)[C@H]1NC(C)=O)[C@@H](C)O[C@H]1O[C@H](CO)[C@@H](O)[C@H](O)[C@@H]1O[C@@H]1O[C@H](CO)[C@@H](O[C@@H]2O[C@H](CO)[C@H](O)[C@H](O)[C@H]2O)[C@H](O)[C@H]1NC(C)=O)[C@@H](C)CC ({Hexanoyl(5-oxo)}-TRGAIIQT(X2)PT(X2)LGPIQPTRV-NH2) | Active | inactive | Active | Active | Active | Active | Active | Active | inactive | Active | Active | Active | inactive | inactive |
| CC[C@H](C)[C@H](NC(=O)[C@H](C)NC(=O)CNC(=O)[C@H](CCCNC(=N)N)NC(=O)[C@@H](NC(=O)CCCC(C)=O)[C@@H](C)O)C(=O)N[C@H](C(=O)N[C@@H](CCC(N)=O)C(=O)N[C@H](C(=O)N1CCC[C@H]1C(=O)N[C@H](C(=O)N[C@@H](CC(C)C)C(=O)NCC(=O)N1CCC[C@H]1C(=O)N[C@H](C(=O)N[C@@H](CCC(N)=O)C(=O)N1CCC[C@H]1C(=O)N[C@H](C(=O)N[C@@H](CCCNC(=N)N)C(=O)N[C@H](C(N)=O)C(C)C)[C@@H](C)O[C@H]1O[C@H](CO)[C@@H](O)[C@H](O)[C@@H]1O[C@@H]1O[C@H](CO)[C@@H](O[C@@H]2O[C@H](CO)[C@H](O)[C@H](O)[C@H]2O)[C@H](O)[C@H]1NC(C)=O)[C@@H](C)CC)[C@@H](C)O[C@H]1O[C@H](CO)[C@@H](O)[C@H](O)[C@@H]1O[C@@H]1O[C@H](CO)[C@@H](O[C@@H]2O[C@H](CO)[C@H](O)[C@H](O)[C@H]2O)[C@H](O)[C@H]1NC(C)=O)[C@@H](C)O[C@H]1O[C@H](CO)[C@@H](O)[C@H](O)[C@@H]1O[C@@H]1O[C@H](CO)[C@@H](O[C@@H]2O[C@H](CO)[C@H](O)[C@H](O)[C@H]2O)[C@H](O)[C@H]1NC(C)=O)[C@@H](C)CC ({Hexanoyl(5-oxo)}-TRGAIIQT(X2)PT(X2)LGPIQPT(X2)RV-NH2) | Active | inactive | Active | Active | Active | Active | Active | Active | inactive | Active | Active | Active | inactive | inactive |
| CC[C@H](C)[C@H](NC(=O)[C@H](C)NC(=O)CNC(=O)[C@H](CCCNC(=N)N)NC(=O)[C@@H](NC(=O)CCCC(C)=O)[C@@H](C)O)C(=O)N[C@H](C(=O)N[C@@H](CCC(N)=O)C(=O)N[C@H](C(=O)N1CCC[C@H]1C(=O)N[C@H](C(=O)N[C@@H](CC(C)C)C(=O)NCC(=O)N1CCC[C@H]1C(=O)N[C@H](C(=O)N[C@@H](CCC(N)=O)C(=O)N1CCC[C@H]1C(=O)N[C@H](C(=O)N[C@@H](CCCNC(N)N)C(=O)N[C@H](C(N)=O)C(C)C)[C@@H](C)O[C@H]1O[C@H](CO)[C@@H](O)[C@H](O)[C@@H]1O[C@@H]1O[C@H](CO)[C@@H](O[C@@H]2O[C@H](CO)[C@H](O)[C@H](O)[C@H]2O)[C@H](O)[C@H]1NC(C)=O)[C@@H](C)CC)[C@@H](C)O)[C@@H](C)O)[C@@H](C)CC ({Hexanoyl(5-oxo)}-TRGAIIQTPTLGPIQPT(X2)[Orn(CH(NH2)2)]V-NH2) | Active | inactive | Active | Active | Active | Active | Active | Active | inactive | Active | Active | Active | inactive | inactive |
| CC[C@H](C)[C@H](NC(=O)[C@H](C)NC(=O)CNC(=O)[C@H](CCCNC(=N)N)NC(=O)[C@@H](NC(=O)CCCC(C)=O)[C@@H](C)O)C(=O)N[C@H](C(=O)N[C@@H](CCC(N)=O)C(=O)N[C@H](C(=O)N1CCC[C@H]1C(=O)N[C@H](C(=O)N[C@@H](CC(C)C)C(=O)NCC(=O)N1CCC[C@H]1C(=O)N[C@H](C(=O)N[C@@H](CCC(N)=O)C(=O)N1CCC[C@H]1C(=O)N[C@H](C(=O)N[C@@H](CCCNC(=N)N)C(=O)N[C@H](C(N)=O)C(C)C)[C@@H](C)O)[C@@H](C)CC)[C@@H](C)O)[C@@H](C)O[C@H]1O[C@H](CO)[C@@H](O)[C@H](O)[C@@H]1O[C@@H]1O[C@H](CO)[C@@H](O)[C@H](O)[C@H]1NC(C)=O)[C@@H](C)CC ({Hexanoyl(5-oxo)}-TRGAIIQT(GlcNAc(β1-2)αMan)PTLGPIQPTRV-NH2) | Active | inactive | Active | Active | Active | Active | Active | Active | inactive | Active | Active | Active | inactive | inactive |
| CC[C@H](C)[C@H](NC(=O)[C@H](C)NC(=O)CNC(=O)[C@H](CCCNC(=N)N)NC(=O)[C@@H](NC(=O)CCCC(C)=O)[C@@H](C)O)C(=O)N[C@H](C(=O)N[C@@H](CCC(N)=O)C(=O)N[C@H](C(=O)N1CCC[C@H]1C(=O)N[C@H](C(=O)N[C@@H](CC(C)C)C(=O)NCC(=O)N1CCC[C@H]1C(=O)N[C@H](C(=O)N[C@@H](CCC(N)=O)C(=O)N1CCC[C@H]1C(=O)N[C@H](C(=O)N[C@@H](CCCNC(=N)N)C(=O)N[C@H](C(N)=O)C(C)C)[C@@H](C)O[C@H]1O[C@H](CO)[C@@H](O)[C@H](O)[C@@H]1O[C@@H]1O[C@H](CO)[C@@H](O)[C@H](O)[C@H]1NC(C)=O)[C@@H](C)CC)[C@@H](C)O[C@H]1O[C@H](CO)[C@@H](O)[C@H](O)[C@@H]1O[C@@H]1O[C@H](CO)[C@@H](O)[C@H](O)[C@H]1NC(C)=O)[C@@H](C)O[C@H]1O[C@H](CO)[C@@H](O)[C@H](O)[C@@H]1O[C@@H]1O[C@H](CO)[C@@H](O)[C@H](O)[C@H]1NC(C)=O)[C@@H](C)CC ({Hexanoyl(5-oxo)}-TRGAIIQT(GlcNAc(β1-2)αMan)PT(GlcNAc(β1-2)αMan)LGPIQPT(GlcNAc(β1-2)αMan)RV-NH2) | Active | inactive | Active | Active | Active | Active | Active | Active | inactive | Active | Active | Active | inactive | inactive |

Source: ChEMBL document CHEMBL4387728, “Synthetic glycopeptides reveal specific binding pattern and conformational change at O-mannosylated position of α-dystroglycan by POMGnT1 catalyzed GlcNAc modification” (Bioorg Med Chem, 2019)
